From ChEMBL document CHEMBL1135213, “New indene-derivatives with anti-proliferative properties” (Bioorg Med Chem Lett, 2002)
Active and inactive are the calls of the source. No cut-off for these calls is given here.

Tests used:
MDCK [1] = experiment: Anti-proliferative activity was evaluated by its ability to inhibit proliferation of MDCK-f3 (Madin-Darby canine kidney f3) cell line; assay type: functional, cell-based, Canis lupus familiaris
SW480 [2] = experiment: Anti-proliferative activity was evaluated by its ability to inhibit proliferation of SW480 cells; assay type: functional, cell-based, Homo sapiens
MDCK [3] = experiment: Anti-proliferative activity was evaluated by its ability to inhibit proliferation of MDCK cells; assay type: functional, cell-based, Canis lupus familiaris
NIH3T3 [4] = experiment: Anti-proliferative activity was evaluated by its ability to inhibit proliferation of murine NIH3T3 fibroblasts; assay type: functional, cell-based, Mus musculus
REF [5] = experiment: Anti-proliferative activity was evaluated by its ability to inhibit proliferation of rat embryonic fibroblasts (REF); assay type: functional, cell-based
[6] = Inhibition of p21ras protein and Raf kinase in vitro using recombinant proteins (inactive)
[7] = molecular target: T1, Cyclooxygenase (Homo sapiens) (UniProt P35354+P23219); settings: Ovis aries
SW480 [8] = experiment: Anti-proliferative activity was evaluated by its ability to inhibit proliferation of SW480 cells; na means Not active; assay type: functional, cell-based, Homo sapiens
MDCK [9] = experiment: Anti-proliferative activity was evaluated by its ability to inhibit proliferation of MDCK-f3 (Madin-Darby canine kidney f3) cell line; na means Not active; assay type: functional, cell-based, Canis lupus familiaris
NIH3T3 [10] = experiment: Anti-proliferative activity was evaluated by its ability to inhibit proliferation of murine NIH3T3 fibroblasts; na means Not active; assay type: functional, cell-based, Mus musculus
REF [11] = experiment: Anti-proliferative activity was evaluated by its ability to inhibit proliferation of rat embryonic fibroblasts (REF); na means Not active; assay type: functional, cell-based
MDCK [12] = experiment: Anti-proliferative activity was evaluated by its ability to inhibit proliferation of MDCK cells; na means Not active; assay type: functional, cell-based, Canis lupus familiaris
[13] = Inhibition of p21ras protein and Raf kinase in vitro using recombinant proteins; design: unit not given here
[14] = molecular target: T1, Cyclooxygenase (Homo sapiens); experiment: Half-maximal inhibition of the COX activity was measured by the direct analysis of the consumed O2 using isolated sheep seminal vesicles; na means Not active; assay type: functional; settings: Ovis aries; target entry is the homologue from another species

Structure (SMILES)	IC50 (SW480 [2]; sw480) [µM]	Inhibitory activity [7]	IC50 (SW480 [2]; Homo sapiens, SW480) [µM]	Inhibitory activity [13]	IC50 (MDCK [1]; Canis lupus familiaris, MDCK) [µM]	IC50 (MDCK [3]; mdck) [µM]	IC50 (NIH3T3 [4]; Mus musculus, NIH3T3) [µM]	IC50 (REF [5]; Rattus norvegicus, REF) [µM]	IC50 (MDCK [3]; Canis lupus familiaris, MDCK) [µM]	also measured
CC1=C(CC(=O)O)c2cc(F)ccc2C1=Cc1ccc(CO)o1 [listing 1 of 3 here]	310				130	250	450	90		
CC1=C(CC(=O)O)c2cc(F)ccc2C1=Cc1cccs1		0.03	320		80		400	100	470	Inhibitory activity [6]: inactive
CC1=C(CC(=O)O)c2cc(F)ccc2C1=Cc1ccc(S(=O)(=O)O)o1										IC50 (SW480 [8]): Not Active; IC50 (MDCK [9]): Not Active; IC50 (NIH3T3 [10]): Not Active; IC50 (REF [11]): Not Active; IC50 (MDCK [12]): Not Active
CC1=C(CC(=O)O)c2cc(F)ccc2C1=Cc1ccc(C)o1 [listing 1 of 2 here]	80					60				IC50 (MDCK [1]; mdck): 60 µM; IC50 (NIH3T3 [4]; nih3t3): 60 µM; IC50 (REF [5]; ref): 10 µM
CC1=C(CC(=O)O)c2cc(F)ccc2C1=Cc1ccc(CO)o1 [listing 2 of 3 here]		570		45						
CC1=C(CC(=O)O)c2cc(F)ccc2C1=Cc1ccc(CO)o1 [listing 3 of 3 here]	70					50				IC50 (MDCK [1]; mdck): 120 µM; IC50 (NIH3T3 [4]; nih3t3): 490 µM; IC50 (REF [5]; ref): 80 µM

The next lines start with results.

IC50 (SW480 [2]; sw480) [µM]	Inhibitory activity [7]	IC50 (SW480 [2]; Homo sapiens, SW480) [µM]	Inhibitory activity [13]	Structure (SMILES)	IC50 (MDCK [1]; Canis lupus familiaris, MDCK) [µM]	IC50 (MDCK [3]; mdck) [µM]	IC50 (NIH3T3 [4]; Mus musculus, NIH3T3) [µM]	IC50 (REF [5]; Rattus norvegicus, REF) [µM]	IC50 (MDCK [3]; Canis lupus familiaris, MDCK) [µM]	also measured
	0.24	400	30	CC1=C(CC(=O)O)c2cc(F)ccc2C1=Cc1ccoc1	50		170	30	300	
		850		COc1ccccc1C=C1C(C)=C(CC(=O)O)c2cc(F)ccc21	360		500	200		
		800		CC1=C(CC(=O)O)c2cc(F)ccc2C1=Cc1ccc([S+](C)[O-])cc1 (stereo unspecified) [SULINDAC]	320		200	100	300	Inhibitory activity [6]: inactive; Inhibitory activity [14]: inactive
		360		COc1cccc(C=C2C(C)=C(CC(=O)O)c3cc(F)ccc32)c1	300		520	200	275	
	1.6		10	COc1ccc(C=C2C(C)=C(CC(=O)O)c3cc(F)ccc32)cc1	310		480	500	460	IC50 (SW480 [8]): Not Active
380				CC1=C(CC(=O)O)c2cc(F)ccc2C1=Cc1ccc(C)o1 [listing 2 of 2 here]		250	100	20		IC50 (MDCK [1]; mdck): 310 µM
	2.6	200	210	CSc1ccc(/C=C2/C(C)=C(CC(=O)O)c3cc(F)ccc32)cc1 [SULINDAC SULFIDE]	200		350	200	180	
